# Measurements as given in patent US6054437A, “Method for inducing death of neoplastic cells using piperazine derivatives” (Hitachi Chemical Research Center, Inc., priority 1997, dated 2000).
# Counter-ions that a name gives are not always drawn.
# How the values were obtained:
# LN (prostate) = assay: Cancer cell survival assay, LN; format: cell-based, human; conditions: seven days, alone
# Experimental: Cell survival was assayed in cultured tumor cells. From 500-1000 cells per well were plated in 24-welled culture dishes and exposed to drug for seven days. After drug exposure, a computerized cell imaging technique was utilized to ascertain the number of viable cells remaining in each culture. From the data, survival curves were plotted and a ED50 (drug concentration that permits 50% cell survival) were calculated.
# The cancer cell survival assay is an important additional in vitro assay to assess the anti-neoplastic activity of compounds as the cells are given a prolonged exposure (seven days) to the drug. FIGS. 9-16 show the effect of increasing the dose of NCO-700 on the survival of a number of cancer cell lines. […] In the figures, the vertical axis is the object area, which is the number of surviving cancer cells calculated by a computer.
# KB-3 (sensitive cells) = assay: Drug accumulation assay ([3H]-vinblastine), sensitive cells; format: cell-based, human; conditions: KB-3, 20 μM NCO-700 + vinblastine
# Experimental: 1. Drug Accumulation Assays
# where the effect of NCO-700 on the uptake of radioactive (^3 H)-vinblastine, an anticancer drug, is measured in cultured cancer cells, that are both drug-resistant and drug-sensitive (Reference 3).
# In the first two in vitro assays, the drug accumulation assay and the cell survival assay, a human pharyngeal carcinoma cell line (KB-V-1) which is highly resistant to anticancer drugs was used. This cell line was developed by Drs. Ira Pastan and Michael Gottesman of the National Cancer Institute, by step-wise selection in colchicine of drug-resistant cells. The control cancer cell line (KB-3), from which the resistant cell lines were derived, is sensitive to anticancer drugs. The resistant KB-V-1 cell line is approximately 275 times more resistant to vinblastine than the sensitive KB-3 line and has a greatly amplified mdr gene which generates the observed resistance.
# Measurement of [^3 H]-vinblastine accumulation was performed by the methods developed in the laboratory of Drs. Gottesman and Pastan (Fojo et al., Cancer Res. 45:3002-3007, 1985). […] After an additional 30 min, the medium was removed, the plates were washed three times in ice-cold phosphate-buffered saline, the cells were detached with trypsin, and radioactivity determined by scintillation counting.
# [1] = system: human breast cancer cells; assay: Subrenal capsule (SRC) tumor implant assay, breast cancer; format: in vivo, human tumor in BDF/1 mice
# Experimental: FIG. 18 is a graph showing the relationship between the change in size of tumor and the dosage of NCO-700 in a sub-renal capsule assay of human breast cancer in BDF/1 mice.
# A tumor implant model, where human tumors were implanted into the renal capsule of mice was performed. The tumors successfully escaped the immune system of the mouse and grew over a six-day period. The advantage of this assay is that the effect of chemotherapeutic agents can be tested in vivo. This model was developed at the University of California, Irvine by Stratton et al. (Gynecologic Oncology 17:185-188, 1984). Human tumors were implanted on day one and were exposed to drug on days two-six. The size of the implant was determined at time zero and at the end of five days of drug treatment, and the difference in size of the implanted tumor at day six, when compared to control animals not exposed to drug, is referred to herein as the delta mean.
# The effect of NCO-700 on a breast cancer line was tested in the SRC assay. Three groups of animals (n=18 total) were tested with three concentrations of NCO-700 including, 10 mg/kg, 25 mg/kg and 50 mg/kg. […] These studies confirm the high potential of NCO-700 and related compounds as new anti-neoplastic agents.
# ovarian tumor cells = assay: Human tumor biopsy assay, ovarian tumor; format: cell-based; conditions: 20 μM NCO-700 and 0.4 mg/ml vinblastine, 1 hour
# Experimental: (§1) 4. Human Tumor Biopsy Assays
# (§2) where the effect of NCO-700 to enhance killing, by either vinblastine or adriamycin, of cancer cells cultured directly from patient's tumors (Von Hoff et al., Cancer Res. 43:1926-1931, 1983).
# (§3) For the tumor biopsy assay, primary cell cultures were propagated directly from tumor specimens removed from patients. The cells were grown in suspension culture, treated with adriamycin or vinblastine plus NCO-700, and plated onto soft agar and incubated for two weeks before cell survival was determined.
# (§4) In a final series of experiments, the effect of NCO-700 on survival of cells cultured directly from biopsied patient tumors was performed. This technique, referred to as a human tumor cloning system, was developed by Von Hoff and associates (Von Hoff et al., Cancer Res. 43:1926-1931, 1983) and was used clinically to predict the course of chemotherapy for these patients. In this method, tumor biopsies were separated into cell suspensions and treated for 1 hour with either 0.4 mg/ml vinblastine (VLB) or 0.5 mg/ml adriamycin (ADR) plus or minus 20 μM NCO-700. The cell suspensions were washed after one hour of incubation and plated with soft agar. After 14 days of incubation at 37°, the percent of colonies surviving was scored. […] In particular, the survival of tumor cells decreased to approximately 1/2 to 1/3 after exposure to NCO-700 and adriamycin. […]
# [2] = system: breast cancer tumor cells from patients; assay: Human tumor biopsy assay (tumor cloning system), breast tumors; format: cell-based; conditions: 20 μM NCO-700, two breast tumors
# Experimental: as §1, §2, §3, §4
# human cancer cells = assay: Cancer cell death assays against a number of human cancer cells; format: cell-based; conditions: compounds alone; analogs at 25 μM (FIGS. 20-25)
# Experimental: Cell death was measured quantitatively by the release of a marker intracellular enzyme, lactate dehydrogenase (LDH), from damaged or killed cells. LDH released into the extracellular fluid, was measured 24 hours after drug exposure to cancer cells and the enzyme activity was determined by the method of Decker et al. (J. Immunolog Methods 15:61-99, 1988).
# As described in Experiment 1, three different assays were performed to measure anti-neoplastic activity of compounds.
# The first assays performed measured the anti-neoplastic activity of NCO-700 analogs in cell death assays against a number of human cancer cells. The results of these experiments are shown in FIGS. 20-25, where a bar graph indicates the activity of a particular analog as measured by the % LDH released, with higher values of LDH released indicating greater anti-neoplastic activity (apoptosis). All analogs were tested at a concentration of 25 μM.
smiles,measurement,setting,value
"CCOC(=O)[C@@H]1O[C@H]1C(=O)N[C@@H](CC(C)C)C(=O)N1CCN(Cc2ccc(OC)c(OC)c2OC)CC1 [NCO-700, Bis[ethyl (2R,3R)-3-[(S)-3-methyl-1-[4-(2,3,4-trimethoxyphenylmethyl)piperazin-1-ylcarbonyl]butylcarbamoyl]oxirane-2-carboxylate] Sulfate]",anti-neoplastic activity (cell survival),LN (prostate),significant anti-neoplastic activity
same,vinblastine accumulation,KB-3 (sensitive cells),3.17 ± 0.09 pmole vinblastine/mg protein
same,effect on tumor size,[1]; 10 mg/kg,no effect
same,effect on tumor size,[1]; 25 mg/kg,significant anti-neoplastic effect
same,effect on tumor size,[1]; 50 mg/kg,significant anti-neoplastic effect
same,survival of tumor cells decreased to (fraction),ovarian tumor cells,approximately 1/3
same,sensitization of tumor cells to adriamycin and vinblastine,[2],significantly sensitized these tumor cells to the actions of adriamycin (ADR) and vinblastine (VLB)
same,"anti-neoplastic activity, selectivity among human cancer cells",human cancer cells,highly effective as an anti-neoplastic agent versus selective tumors
